Test results as given in patent US20020193425A1, “Cancer chemopreventative compounds and compositions and methods of treating cancers” (priority 2001, published 2002).
Read-outs that look alike come from different tables or passages of the source.

Experiments:
[1] = tested on: c-Myc oncoprotein, BV173; assay: c-Myc oncoprotein expression, western blotting; type: cell-based
Description: (§1) The expression of c-Myc was assessed by immunoblots as previously described. In brief, cells (10^6) were treated and harvested at various time intervals, and whole-cell pellets were lysed with detergent lysis buffer (1 ml/10^7 cells, 50 mM Tris-HCl buffer, pH 8.0, 150 mM NaCl, 1 mM DTT, 0.5 mM EDTA, 1% Nonidet® P40, 0.5% sodium deoxycholate, 0.1% sodium dodecylsulfate, 100 μg/ml phenylmethylsulfonyl fluoride, 1 μg/ml aprotinin, 2 μg/ml leupeptin and 100 μM sodium vanadate) to obtain protein lysates. Protein concentrations were quantified using a bicinchoninic acid kit. Since c-Myc is a labile protein, cell lysates were not frozen, but stored at 4° C., until all protein lysates were prepared for a particular cell line, and then western blots were performed immediately. Total protein ([…]) was separated by 10% SDS-PAGE, electroblotted to PVDF membranes, and blocked overnight with 5% nonfat dry milk. The membrane was incubated with a solution of the primary antibody (2.5 μg/ml), prepared in 1% blocking solution, for 2 h at room temperature, washed three-times for 15 min with PBS-T (PBS with 0.1%, v/v, Tween 20), and incubated with a 1:2500 dilution of horseradish peroxidase-conjugated secondary antibody for 30 min at 37° C. Blots were again washed three-times for 10 min each in PBS-T and developed by enhanced chemiluminescence (Amersham). Membranes were exposed to Kodak Biomax film and the resulting film was analyzed using Kodak 1D Image Analysis software. Membranes were then stripped and reprobed for the quantification of bactin.
(§2) Cells were treated with solvent (0.1% v/v DMSO, control), brusatol (25 ng/ml) or bruceantin (10 ng/ml) for 4 or 24 h, then analyzed by western blotting. Membranes were probed for c-Myc, and then stripped and probed for β-actin as an internal control.
(§3) Cells were treated with brusatol (25 ng/ml) or bruceantin (10 ng/ml) for 4 or 24 h, and then analyzed for c-Myc and β-actin expression using western blotting techniques. Results are expressed as percentage of c-Myc oncoprotein of control (0.1%, v/v, DMSO treated cells) values. Results were normalized relative to β-actin.

[2] = tested on: c-Myc oncoprotein, Daudi; assay: c-Myc oncoprotein expression, western blotting; type: cell-based
Description: as §1, §2, §3

[3] = tested on: c-Myc oncoprotein, K562; assay: c-Myc oncoprotein expression, western blotting; type: cell-based
Description: as §1, §2, §3

[4] = tested on: c-Myc oncoprotein, Kasumi-1; assay: c-Myc oncoprotein expression, western blotting; type: cell-based
Description: as §1, §2, §3

[5] = tested on: c-Myc oncoprotein, NB4; assay: c-Myc oncoprotein expression, western blotting; type: cell-based
Description: as §1, §2, §3

[6] = tested on: c-Myc oncoprotein, RS4;11; assay: c-Myc oncoprotein expression, western blotting; type: cell-based
Description: as §1, §2, §3

[7] = tested on: c-Myc oncoprotein, Reh; assay: c-Myc oncoprotein expression, western blotting; type: cell-based
Description: as §1, §2, §3

[8] = tested on: c-Myc oncoprotein, SUPB13; assay: c-Myc oncoprotein expression, western blotting; type: cell-based
Description: as §1, §2, §3

[9] = tested on: c-Myc oncoprotein, U937; assay: c-Myc oncoprotein expression, western blotting; type: cell-based
Description: as §1, §2, §3

[10] = tested on: HL-60 (human promyelocytic) cells; assay: HL-60 cell proliferation assay of quassinoids, [3H]thymidine incorporation; type: cell-based; settings: for IC50: Homo sapiens, 4-day incubation, [3H]thymidine incorporation, read-out: inhibition of proliferation (IC50); for selectivity index: ratio of cytotoxic IC50 over antiproliferative IC50
Description: (§4) Induction of differentiation was determined by the ability of treated cells to produce superoxide anions (nitroblue tetrazolium (NBT)-reduction), a functional marker of mature macrophages or granulocytes. Proliferation capacity is equivalent to cell growth and was measured by incorporation of [3H]thymidine into DNA over a period of 18 h, and cytotoxic activity was evaluated by the loss of membrane integrity as shown by trypan blue exclusion. […] Although members of the brusatol and glaucarubolone series were active, when comparing members of both series that varied only in the positioning of the epoxymethano bridge, great differences were noted, as shown with yadianzolide C (5) and glaucarubolone (24), and analogues 4 (brusatol series) and 32 (glaucarubolone series).
(§5) HL-60 (human promyelocytic) cells were tested using a 4-day incubation protocol. In brief, cells in log phase (approximately 10^6 cells/mL) were diluted to […] and preincubated overnight (18 h) in 24-well plates to allow cell-growth recovery. Then, samples dissolved in DMSO were added, keeping the final DMSO concentration at 0.1% (v/v). Control cultures were treated with the same concentration of DMSO. After 4 days of incubation, the cells were analyzed to determine the percentage of cells undergoing maturation as determined by NBT reduction. Concomitantly, the effect on viability and proliferation of HL-60 cells was determined. In each experiment, 1α, 25-dihydroxyvitamin D3 (EC50=0.01 μM) and brusatol (EC50=0.07 μM) were used as reference controls. EC50 and IC50 values were calculated using 5-7 test concentrations (in duplicate), and consistent results were obtained, indicating the data reported for the related quassinoids are reliable.
(3) Cell Proliferation Assay. […] Cells were then collected on glass fiber filters (90×120 mm; Wallac, Turku, Finland) using a TOMTEC Harvester 96®.

[11] = tested on: HL-60 (human promyelocytic) cells; assay: HL-60 cell differentiation of quassinoids, NBT reduction; type: cell-based; settings: Homo sapiens, HL-60, 96 h, read-out: induction of differentiation (EC50, μM)
Description: as §4, §5
(1) Nitroblue Tetrazolium (NBT) Reduction. Evaluation of NBT reduction was used to assess the ability of sample-treated HL-60 cells to produce superoxide when challenged with 12-O-tetradecanoylphorbol 13-acetate (TPA). A 1:1 v/v) mixture of a cell suspension (10^6 cells) and TPA/NBT solution (2 mg/mL NBT and 1 μg/mL TPA in phosphate buffered solution) was incubated for 1 h at 37° C. Positive cells reduce NBT yielding intracellular black-blue formazan deposits, which were quantified by microscopic examination of >200 cells. Results were expressed as a percentage of positive cells.

[12] = HL-60 cytotoxicity of quassinoids, trypan blue exclusion; type: cell-based, human; settings: human
Description: as §4, §5
(2) Cytotoxicity. Since loss of membrane integrity is an early feature of necrotic cells and a late feature of apoptotic cells, trypan blue, a […] blue dye, was used to stain cells with compromised plasma membranes, while leaving intact cells unstained. Cells […] of trypan blue (0.2% w/v in PBS), incubated for at least 5 min at room temperature, and counted using a hematocytometer. Viability percentages were calculated with duplicate samples.

COC(=O)[C@@]12OC[C@]34[C@H]([C@@H](O)[C@@H]1O)[C@@]1(C)CC(=O)C(O)=C(C)[C@@H]1C[C@H]3OC(=O)[C@H](OC(=O)C=C(C)C)[C@@H]24 [compound 1, brusatol]
c-Myc oncoprotein, percentage of control ([1]; Brusatol (25 ng/ml), 4 h): 22%
c-Myc oncoprotein, percentage of control ([1]; Brusatol (25 ng/ml), 24 h): 41%
c-Myc oncoprotein, percentage of control ([2]; Brusatol (25 ng/ml), 4 h): 79%
c-Myc oncoprotein, percentage of control ([2]; Brusatol (25 ng/ml), 24 h): 10%
decrease of c-Myc protein levels ([3]; 4 h treatment): 94%
c-Myc oncoprotein, percentage of control ([3]; Brusatol (25 ng/ml), 4 h): 6%
c-Myc oncoprotein, percentage of control ([3]; Brusatol (25 ng/ml), 24 h): 13%
c-Myc oncoprotein, percentage of control ([4]; Brusatol (25 ng/ml), 4 h): 66%
c-Myc oncoprotein, percentage of control ([4]; Brusatol (25 ng/ml), 24 h): 112%
c-Myc oncoprotein, percentage of control ([5]; Brusatol (25 ng/ml), 4 h): 0%
c-Myc oncoprotein, percentage of control ([5]; Brusatol (25 ng/ml), 24 h): 0%
c-Myc oncoprotein, percentage of control ([6]; RS4,11, Brusatol (25 ng/ml), 24 h): 10%
c-Myc oncoprotein, percentage of control ([6]; RS4;11, Brusatol (25 ng/ml), 4 h): 20%
c-Myc oncoprotein, percentage of control ([7]; Brusatol (25 ng/ml), 4 h): 66%
c-Myc oncoprotein, percentage of control ([7]; Brusatol (25 ng/ml), 24 h): 32%
c-Myc oncoprotein, percentage of control ([8]; Brusatol (25 ng/ml), 4 h): 52%
c-Myc oncoprotein, percentage of control ([8]; Brusatol (25 ng/ml), 24 h): 41%
c-Myc oncoprotein, percentage of control ([9]; Brusatol (25 ng/ml), 4 h): 5%
c-Myc oncoprotein, percentage of control ([9]; Brusatol (25 ng/ml), 24 h): 12%
IC50 [10]: 70 ± 7 nM
selectivity index [10]: 2.5 ± 0.3
EC50 [11]: 0.07 µM
IC50 at 4 days ([12]; HL-60 cells, HL-60, 4-day incubation, trypan blue exclusion, read-out: cytotoxicity (IC50)): 170 ± 1 nM

COC(=O)[C@@]12OC[C@]34[C@H]([C@@H](O)[C@@H]1O)[C@@]1(C)CC(=O)C(O)=C(C)[C@@H]1C[C@H]3OC(=O)[C@H](OC(=O)/C=C(\C)C(C)C)[C@@H]24 [compound 2, bruceantin]
c-Myc oncoprotein, percentage of control ([1]; Bruceantin (10 ng/ml), 4 h): 28%
c-Myc oncoprotein, percentage of control ([1]; Bruceantin (10 ng/ml), 24 h): 12%
c-Myc oncoprotein, percentage of control ([2]; Bruceantin (10 ng/ml), 4 h): 67%
c-Myc oncoprotein, percentage of control ([2]; Bruceantin (10 ng/ml), 24 h): 2%
c-Myc oncoprotein, percentage of control ([3]; Bruceantin (10 ng/ml), 4 h): 2%
c-Myc oncoprotein, percentage of control ([3]; Bruceantin (10 ng/ml), 24 h): 12%
c-Myc oncoprotein, percentage of control ([4]; Bruceantin (10 ng/ml), 4 h): 70%
c-Myc oncoprotein, percentage of control ([4]; Bruceantin (10 ng/ml), 24 h): 87%
c-Myc oncoprotein, percentage of control ([5]; Bruceantin (10 ng/ml), 4 h): 0%
c-Myc oncoprotein, percentage of control ([5]; Bruceantin (10 ng/ml), 24 h): 0%
c-Myc oncoprotein, percentage of control ([6]; RS4;11, Bruceantin (10 ng/ml), 4 h): 140%
c-Myc oncoprotein, percentage of control ([6]; RS4;11, Bruceantin (10 ng/ml), 24 h): 6%
c-Myc oncoprotein, percentage of control ([7]; Bruceantin (10 ng/ml), 4 h): 44%
c-Myc oncoprotein, percentage of control ([7]; Bruceantin (10 ng/ml), 24 h): 40%
c-Myc oncoprotein, percentage of control ([8]; Bruceantin (10 ng/ml), 4 h): 42%
c-Myc oncoprotein, percentage of control ([8]; Bruceantin (10 ng/ml), 24 h): 63%
c-Myc oncoprotein, percentage of control ([9]; Bruceantin (10 ng/ml), 4 h): 40%
c-Myc oncoprotein, percentage of control ([9]; Bruceantin (10 ng/ml), 24 h): 44%
IC50 [10]: 40 ± 3 nM
selectivity index [10]: 1.0 ± 0.2
EC50 [11]: 0.02 ± 0.002 µM
IC50 at 4 days [12]: 40 ± 3 nM
